Publication PMC10101930 (Immunity, 2023)

Molecular target: NHR-86 (Caenorhabditis elegans, UniProt Q965W2)
Experiment: intrinsic tryptophan fluorescence quenching of purified LBD
Assay type: binding

Chain of NHR-86 (Q965W2 130-405): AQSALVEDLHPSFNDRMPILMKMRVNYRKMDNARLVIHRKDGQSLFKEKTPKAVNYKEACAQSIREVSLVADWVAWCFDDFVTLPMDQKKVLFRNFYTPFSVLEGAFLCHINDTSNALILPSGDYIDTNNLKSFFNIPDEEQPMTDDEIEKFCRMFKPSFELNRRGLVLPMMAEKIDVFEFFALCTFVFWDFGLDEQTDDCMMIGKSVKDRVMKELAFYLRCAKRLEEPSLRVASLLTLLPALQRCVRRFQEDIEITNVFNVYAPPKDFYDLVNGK

`NC(=O)c1cccc2nc3ccccc3nc12` [PCN, phenazine-1-carboxamide] showed a Kd of 24.2 µM.
